# Assay results from the RepoRT retention time repository (doi:10.1016/j.foodchem.2021.129757).
# What was measured:
# Details in all cases: stereoisomer not certain
# [1] = RP, Agilent ZORBAX RRHD Eclipse Plus C18, 50 × 2.1 mm, 1.8 µm, 30 °C, 0.4 mL/min, estimated dead time 0.28 min; A: water + 0.1% formic acid, pH 3; B: acetonitrile + 0.1% formic acid, pH 3; gradient (min/%B) 0/1 5/10 8/25 9.1/99 10/99 12/1
# [2] = RP, Agilent ZORBAX Eclipse XDB-C18, 100 × 2.1 mm, 1.8 µm, 50 °C, 0.4 mL/min, estimated dead time 0.55 min; A: water + 0.1% formic acid, pH 3; B: methanol + 0.1% formic acid, pH 3; gradient (min/%B) 0/2 10/100 14.5/100 14.51/2 16.5/2
# [3] = RP, Waters Atlantis T3, 100 × 2.1 mm, 3 µm, 40 °C, 0.3 mL/min, estimated dead time 0.73 min; A: water + 0.1% trifluoroacetic acid, pH 2; B: acetonitrile + 0.1% trifluoroacetic acid, pH 2; gradient (min/%B) 0/10 1/10 6/40 7/50 8/50 14/70 16/80 20/10 25/10
# [4] = RP, Agilent ZORBAX RRHD Eclipse Plus C18, 50 × 2.1 mm, 1.8 µm, 30 °C, 0.4 mL/min, estimated dead time 0.28 min; A: water + 0.1% formic acid, pH 3; B: acetonitrile + 0.1% formic acid, pH 3; gradient (min/%B) 0/1 5/10 8/25 9.1/99 10/99 12/99
# [5] = Other, Phenomenex Kinetex PFP, 100 × 4.6 mm, 2.6 µm, 35 °C, 1.5 mL/min, estimated dead time 0.71 min; A: water + 0.1% trifluoroacetic acid, pH 2; B: acetonitrile + 0.1% trifluoroacetic acid, pH 2; gradient (min/%B) 0/1 7/7.5 14/7.6 17/10 18.5/12 20/12.5 24/30 25/90 25.1/1 32/1
# [6] = RP, Agilent InfinityLab Poroshell 120 EC-C18, 100 × 3 mm, 2.7 µm, 25 °C, 0.4 mL/min, estimated dead time 1.1 min; A: water + 0.1% formic acid, pH 3; B: acetonitrile + 0.1% formic acid, pH 3; gradient (min/%B) 0/5 10/25 20/40 24/90 25/90 26/5 30/5
# [7] = Other, Phenomenex Kinetex PFP, 100 × 4.6 mm, 5 µm, 45 °C, 0.6 mL/min, estimated dead time 1.8 min; A: water + 0.1% trifluoroacetic acid, pH 2; B: methanol; gradient (min/%B) 0/40 20/72 21/40
# [8] = RP, 150 × 2.1 mm, 2.6 µm, 40 °C, 0.35 mL/min, estimated dead time 0.94 min; A: water + 0.1% formic acid, pH 3; B: acetonitrile + 0.1% formic acid, pH 3; gradient (min/%B) 0/0 1/5 7/45 8.5/80 10.5/80 11/5 12/5
# [9] = RP, 150 × 2.1 mm, 2.6 µm, 40 °C, 0.35 mL/min, estimated dead time 0.94 min; A: water + 0.1% formic acid, pH 3; B: acetonitrile + 0.1% formic acid, pH 3; gradient (min/%B) 0/0 1/0 12.5/100 14/100 14.2/0 15/0
# [10] = RP, Phenomenex Synergi Hydro-RP, 250 × 2 mm, 4 µm, 25 °C, 0.2 mL/min, estimated dead time 2.5 min; A: water + 0.1% formic acid, pH 3; B: acetonitrile + 0.1% formic acid, pH 3; gradient (min/%B) 0/0.5 7/0.5 12/12.5 25/16.3 47/35 48/65 50/65 50.1/0.5
# [11] = RP, Phenomenex Kinetex EVO C18, 100 × 2.1 mm, 2.6 µm, 40 °C, 0.4 mL/min, estimated dead time 0.55 min; A: water + 0.2% formic acid; B: acetonitrile + 0.2% formic acid; gradient (min/%B) 0/5 0.5/5 7/95 8/95 8.5/5 12/5
# [12] = RP, Waters ACQUITY UPLC BEH C18, 100 × 2.1 mm, 1.7 µm, 65 °C, 0.4 mL/min, estimated dead time 0.55 min; A: water + 0.1% formic acid, pH 3; B: 80% acetonitrile + 20% acetone + 0.1% formic acid, pH 3; gradient (min/%B) 0/0 5/100 5.5/0 6/0
# [13] = RP, Waters ACQUITY UPLC HSS T3, 100 × 2.1 mm, 50 °C; A: water + 0.1% formic acid, pH 3; B: 30% methanol + 70% acetonitrile + 0.1% formic acid, pH 3; gradient (min/%B) 0/5 1/8 2/15 3/40 4/70 4.5/100 5/100 6.4/100 6.6/5 6.8/5 7/5
# [14] = RP, Merck LiChrospher RP-18, 250 × 4 mm, 5 µm, 35 °C, 0.3 mL/min, estimated dead time 6.7 min; A: water + 0.5% formic acid; B: acetonitrile + 0.5% formic acid; gradient (min/%B) 0/5 10/5 30/15 45/20 65/20 95/54 110/63 115/5 135/5
# [15] = RP, Waters ACQUITY UPLC HSS T3, 100 × 2.1 mm, 1.8 µm, 30 °C, 0.4 mL/min, estimated dead time 0.55 min; A: water + 0.1% formic acid, pH 3; B: acetonitrile + 0.1% formic acid, pH 3; gradient (min/%B) 0/0 2/0 15/100 22/100 22.1/0 26/0
# [16] = RP, Phenomenex Synergi Hydro-RP, 150 × 2 mm, 4 µm, 30 °C, 0.5 mL/min, estimated dead time 0.6 min; A: water + 0.1% formic acid, pH 3; B: acetonitrile + 0.1% formic acid, pH 3; gradient (min/%B) 0/5 1/5 35/45 40/100 45/100
# [17] = RP, 50 × 0.5 mm, 2.7 µm, 35 °C, 0.01 mL/min, estimated dead time 0.62 min; A: water + 0.1% formic acid, pH 3; B: acetonitrile + 0.1% formic acid, pH 3; gradient (min/%B) 0/5 12/95 14/95 16/5
# [18] = RP, Waters ACQUITY UPLC BEH Shield RP18, 150 × 2.1 mm, 1.7 µm, 40 °C, 0.4 mL/min, estimated dead time 0.83 min; A: water + 0.1% formic acid, pH 3; B: acetonitrile + 0.1% formic acid, pH 3; gradient (min/%B) 0/0 30/50 31/100 37/100 37.1/0
# [19] = RP, Phenomenex Luna Omega Polar C18, 100 × 2.1 mm, 1.6 µm, 40 °C, 0.5 mL/min, estimated dead time 0.44 min; A: water + 0.1% formic acid + 10 mM ammonium formate; B: acetonitrile; gradient (min/%B) 0/5 8/20 10/100 12/100 12.1/5 14/5
# [20] = RP, Waters ACQUITY UPLC BEH Shield RP18, 100 × 2.1 mm, 1.7 µm, 30 °C, 0.6 mL/min, estimated dead time 0.37 min; A: water + 0.1% formic acid, pH 3; B: acetonitrile + 0.1% formic acid, pH 3; gradient (min/%B) 0/0 2/0 7/10 22/95 22.1/0 26/0
# [21] = RP, Phenomenex Luna C18, 150 × 4.6 mm, 3 µm, 25 °C, 0.5 mL/min, estimated dead time 3.2 min; A: water + 0.1% formic acid, pH 3; B: acetonitrile + 0.1% formic acid, pH 3; gradient (min/%B) 0/0 30/30 35/40 50/80 52/80 60/0 65/0
# [22] = RP, Merck Supelco SUPELCOSIL LC-C18, 250 × 4.6 mm, 5 µm, 40 °C, 1 mL/min, estimated dead time 2.6 min; A: water + 0.1% trifluoroacetic acid, pH 2; B: acetonitrile + 0.1% trifluoroacetic acid, pH 2; gradient (min/%B) 0/5 45/35 47/75 49/35 50/5
# [23] = RP, Phenomenex Luna Omega Polar C18, 100 × 2.1 mm, 1.6 µm, 40 °C, 0.5 mL/min, estimated dead time 0.44 min; A: water + 0.5% formic acid; B: acetonitrile + 0.5% formic acid; gradient (min/%B) 0/5 3/50 3.1/100 5/100 5.1/5 7/5
LC retention time [1],LC retention time [2],LC retention time [3],LC retention time [4],LC retention time [5],LC retention time [6],LC retention time [8],LC retention time [9],LC retention time [10],LC retention time [12],LC retention time [14],LC retention time [15],LC retention time [17],LC retention time [18],LC retention time [19],LC retention time [20],LC retention time [21],LC retention time [22],Compound,other results
5.18 min,3.5 min,4.79 min,3.99 min,9.73 min,,,,,,,,,,,,,,"O=C(O)c1cccc(O)c1O [2,3-Dihydroxybenzoic acid]",
5.18 min,,5.01 min,3.99 min,10.9 min,6.36 min,,,,,,,,,,,,,"O=C(O)c1ccc(O)cc1O [2,4-Dihydroxybenzoic acid]",
3.6 min,2.55 min,,1.47 min,15.3 min,,7.28 min,7.07 min,17 min,,,,,,,,,,"O=C(O)Cc1ccc(O)c(O)c1 [3,4-Dihydroxyphenylacetic acid]",LC retention time [7]: 3.74 min
5.23 min,3.42 min,,4.4 min,9.81 min,,,,,1.92 min,,,,,,,,,O=Cc1ccc(O)cc1 [4-Hydroxybenzaldehyde],LC retention time [11]: 3.43 min; LC retention time [13]: 3.28 min
7.44 min,5.17 min,,7.28 min,15.4 min,,,,35.5 min,,71.8 min,,,,,,,,O=C(O)c1ccccc1 [Benzoic acid],LC retention time [7]: 7.84 min
5.94 min,3.69 min,,2.83 min,18.8 min,6.83 min,,,,,,8.67 min,3.03 min,10.3 min,4.17 min,16 min,16.4 min,,COc1cc(CC(=O)O)ccc1O [Homovanillic acid],LC retention time [16]: 10.2 min
,,8.22 min,,24.6 min,,,,39.6 min,,81.1 min,9.96 min,,14.2 min,,,,30.8 min,O=C(CCc1ccc(O)cc1)c1c(O)cc(O)cc1OC1OC(CO)C(O)C(O)C1O (configuration not stated) [Phloridzin],
8.13 min,5.25 min,,8.16 min,18.9 min,,,,37.4 min,,81.6 min,10.5 min,,12.8 min,,,,,O=C(O)c1ccccc1O [Salicylic acid],
7.6 min,4.97 min,,7.99 min,22.3 min,9.78 min,2.79 min,2.81 min,33 min,2.1 min,,9.44 min,4.25 min,11.1 min,7.22 min,12.5 min,25.1 min,23.3 min,COc1cc(C=CC(=O)O)cc(OC)c1O [Sinapic acid],LC retention time [16]: 15.2 min; LC retention time [23]: 2.53 min
4.25 min,3.61 min,10 min,1.83 min,9.34 min,6.3 min,3.36 min,3.6 min,22.1 min,1.8 min,44.7 min,8.52 min,2.97 min,6.96 min,4.01 min,9.67 min,15.7 min,13.7 min,COc1cc(C(=O)O)ccc1O [Vanillic acid],LC retention time [23]: 2.07 min; LC retention time [13]: 3.2 min
